From US11000033B2, “Ketone or oxime compound, and herbicide” (NISSAN CHEMICAL CORPORATION, priority 2014, dated 2021)

Assays:
Format in all cases: in vivo
[1] = system: Echinochloa oryzacola Vasing.; experiment: Test Example 2: herbicidal activity, application during weed generation in submerged conditions (symbol A); settings: Table 23; application herbicide amount 320 g/ha; grade 0-5 by criteria of Test Example 1
Outline: (§1)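 Submerged alluvial soil (4 cm) sown with mixed seed; greenhouse 25–30° C. 1–2 leaf: diluted emulsion onto water surface, preset dose. Visual score, 3 wk.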

Monochoria vaginalis = experiment: Test Example 2: herbicidal activity, application during weed generation in submerged conditions (symbol C); settings: Table 23; application herbicide amount 320 g/ha; grade 0-5 by criteria of Test Example 1
Outline: as §1

[2] = system: Echinochloa crus-galli var. crus-galli; experiment: Test Example 3: herbicidal effect by foliage application, Wagner pot (symbol H); settings: application herbicide amount 320 g/ha
Outline: (§2)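 Steps: fill pot with alluvial soil; add water to 0.1–0.5 cm depth; sow weed and rice seed; grow 14 days at 25–30 °C; spray diluted emulsion over the leaves; rate effect after 3 weeks.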

Leptochloa chinensis = experiment: Test Example 3: herbicidal effect by foliage application, Wagner pot (symbol D); settings: application herbicide amount 320 g/ha
Outline: as §2

Cyperus difformis = experiment: Test Example 3: herbicidal effect by foliage application, Wagner pot (symbol E); settings: application herbicide amount 320 g/ha
Outline: as §2

Digitaria ciliaris = experiment: Test Example 4: herbicidal effect by soil treatment (symbol F); settings: application herbicide amount 320 g/ha
Outline: (§3)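 Seeds were sown in sterilized diluvial soil, covered with about 1.5 cm of soil, and the soil surface was sprayed with a water-diluted emulsion of the compound at a predetermined rate. Plants grew in a greenhouse at 25° C. to 30° C.; effects were scored visually 3 weeks after application.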

Setaria viridis = experiment: Test Example 4: herbicidal effect by soil treatment (symbol G); settings: application herbicide amount 320 g/ha
Outline: as §3

Alopecurus myosuroides = experiment: Test Example 4: herbicidal effect by soil treatment (symbol J); settings: application herbicide amount 320 g/ha
Outline: as §3

Abutilon theophrasti = experiment: Test Example 4: herbicidal effect by soil treatment (symbol M); settings: application herbicide amount 320 g/ha
Outline: as §3

Stellaria media [3] = experiment: Test Example 4: herbicidal effect by soil treatment (symbol P); settings: application herbicide amount 320 g/ha
Outline: as §3

Veronica persica = experiment: Test Example 4: herbicidal effect by soil treatment (symbol R); settings: application herbicide amount 320 g/ha
Outline: as §3

corn = experiment: Test Example 4: effect on crop by soil treatment (symbol c); settings: application herbicide amount 320 g/ha
Outline: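 The test used sterilized diluvial soil. Seed was set down in spots and overlaid with about 1.5 cm of soil before growth in a greenhouse kept at 25° C. to 30° C.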

Stellaria media [4] = experiment: Test Example 5: herbicidal effect by foliage application, plastic box (symbol P); settings: 320 g/ha, 3 weeks after application
Outline: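 Sowing in sterilized diluvial soil, 14 days' greenhouse growth at 25° C. to 30° C., then uniform small-sprayer foliar application of aqueous emulsion dilution; plants scored three weeks afterwards.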

wheat = experiment: Test Example 5: effect on crop by foliage application, plastic box (symbol e); settings: 320 g/ha, 3 weeks after application
Outline: (§4)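 In a plastic box 7 cm deep filled with sterilized diluvial soil, seeds of crops and weeds such as Digitaria ciliaris, Avena fatua and Amaranthus retroflexus are sown in spots and covered with about 1.5 cm of soil before greenhouse growth at 25–30° C.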

rapeseed = experiment: Test Example 5: effect on crop by foliage application, plastic box (symbol g); settings: 320 g/ha, 3 weeks after application
Outline: as §4

| SMILES | Herbicidal effect grade, A: Echinochloa oryzacola Vasing. [1] | Herbicidal effect grade, C: Monochoria vaginalis (Monochoria vaginalis) | herbicidal effect on H (Echinochloa crus-galli var. crus-galli), grade 0-5 [2] | herbicidal effect on D (Leptochloa chinensis), grade 0-5 (Leptochloa chinensis) | herbicidal effect on E, grade 0-5 (Cyperus difformis) | F: Digitaria ciliaris, herbicidal effect grade (Digitaria ciliaris) | G: Setaria viridis, herbicidal effect grade (Setaria viridis) | J: Alopecurus myosuroides, herbicidal effect grade (Alopecurus myosuroides) | M: Abutilon theophrasti, herbicidal effect grade (Abutilon theophrasti) | P: Stellaria media, herbicidal effect grade (Stellaria media [3]) | R: Veronica persica, herbicidal effect grade (Veronica persica) | c: corn, effect on crop grade (corn) | P: Stellaria media, herbicidal effect (criteria of Test Example 1) (Stellaria media [4]) | e: wheat, effect on crop (criteria of Test Example 1) (wheat) | g: rapeseed, effect on crop (criteria of Test Example 1) (rapeseed) | further results |
| --- | --- | --- | --- | --- | --- | --- | --- | --- | --- | --- | --- | --- | --- | --- | --- | --- |
| CON=C(C)CC1CC(OC(=O)CCCC(C)=O)=C(c2c(C)cc(-c3ccc(Cl)cc3)cc2C)C1=O (stereo not drawn) [6-080] | 5 (Herbicidal ratio of 90% or more (almost completely withered)) | 3 (Herbicidal ratio of 40% or higher and lower than 70%) | 5 (Herbicidal ratio of 90% or more (almost completely withered)) | 5 (Herbicidal ratio of 90% or more (almost completely withered)) | 5 (Herbicidal ratio of 90% or more (almost completely withered)) | 5 (Herbicidal ratio of 90% or more (almost completely withered)) | 5 (Herbicidal ratio of 90% or more (almost completely withered)) | 5 (Herbicidal ratio of 90% or more (almost completely withered)) | 0 (Herbicidal ratio of 5% or lower (almost no effect)) | 0 (Herbicidal ratio of 5% or lower (almost no effect)) | 0 (Herbicidal ratio of 5% or lower (almost no effect)) | 0 (Herbicidal ratio of 5% or lower (almost no effect)) | 0 (Herbicidal ratio of 5% or lower (almost no effect)) | 5 (Herbicidal ratio of 90% or more (almost completely withered)) | 3 (Herbicidal ratio of 40% or higher and lower than 70%) | – |
| CON=C(C)CC1CC(OC(=O)SC(C)(C)C)=C(c2c(C)cc(-c3ccc(Cl)cc3)cc2C)C1=O (stereo not drawn) [6-082] | 4 (Herbicidal ratio of 70% or higher and lower than 90%) | 5 (Herbicidal ratio of 90% or more (almost completely withered)) | 5 (Herbicidal ratio of 90% or more (almost completely withered)) | 5 (Herbicidal ratio of 90% or more (almost completely withered)) | 5 (Herbicidal ratio of 90% or more (almost completely withered)) | 5 (Herbicidal ratio of 90% or more (almost completely withered)) | 5 (Herbicidal ratio of 90% or more (almost completely withered)) | 5 (Herbicidal ratio of 90% or more (almost completely withered)) | 2 (Herbicidal ratio of 20% or higher and lower than 40%) | 0 (Herbicidal ratio of 5% or lower (almost no effect)) | 3 (Herbicidal ratio of 40% or higher and lower than 70%) | 0 (Herbicidal ratio of 5% or lower (almost no effect)) | 1 (Herbicidal ratio of 5% or higher and lower than 20%) | 5 (Herbicidal ratio of 90% or more (almost completely withered)) | 4 (Herbicidal ratio of 70% or higher and lower than 90%) | – |
| CON=C(C)CC1CC(OCOC(=O)c2ccccc2)=C(c2c(C)cc(-c3ccc(Cl)cc3)cc2C)C1=O (stereo not drawn) [6-083] | 5 (Herbicidal ratio of 90% or more (almost completely withered)) | 4 (Herbicidal ratio of 70% or higher and lower than 90%) | 5 (Herbicidal ratio of 90% or more (almost completely withered)) | 5 (Herbicidal ratio of 90% or more (almost completely withered)) | 5 (Herbicidal ratio of 90% or more (almost completely withered)) | 5 (Herbicidal ratio of 90% or more (almost completely withered)) | 5 (Herbicidal ratio of 90% or more (almost completely withered)) | 5 (Herbicidal ratio of 90% or more (almost completely withered)) | 0 (Herbicidal ratio of 5% or lower (almost no effect)) | 0 (Herbicidal ratio of 5% or lower (almost no effect)) | 3 (Herbicidal ratio of 40% or higher and lower than 70%) | 0 (Herbicidal ratio of 5% or lower (almost no effect)) | 1 (Herbicidal ratio of 5% or higher and lower than 20%) | 4 (Herbicidal ratio of 70% or higher and lower than 90%) | 4 (Herbicidal ratio of 70% or higher and lower than 90%) | – |
| CON=C(C)CC1CC(O)=C(c2c(C)cc(-c3ccc(Cl)cc3F)cc2C)C1=O (stereo not drawn) [6-084] | 4 (Herbicidal ratio of 70% or higher and lower than 90%) | 0 (Herbicidal ratio of 5% or lower (almost no effect)) | 5 (Herbicidal ratio of 90% or more (almost completely withered)) | 5 (Herbicidal ratio of 90% or more (almost completely withered)) | 5 (Herbicidal ratio of 90% or more (almost completely withered)) | 5 (Herbicidal ratio of 90% or more (almost completely withered)) | 5 (Herbicidal ratio of 90% or more (almost completely withered)) | 5 (Herbicidal ratio of 90% or more (almost completely withered)) | 0 (Herbicidal ratio of 5% or lower (almost no effect)) | 3 (Herbicidal ratio of 40% or higher and lower than 70%) | 4 (Herbicidal ratio of 70% or higher and lower than 90%) | 0 (Herbicidal ratio of 5% or lower (almost no effect)) | 3 (Herbicidal ratio of 40% or higher and lower than 70%) | 4 (Herbicidal ratio of 70% or higher and lower than 90%) | 4 (Herbicidal ratio of 70% or higher and lower than 90%) | – |
| CON=C(C)CC1CC(O)=C(c2c(C)cc(-c3ccc(F)c(Cl)c3)cc2C)C1=O (stereo not drawn) [6-085] | 5 (Herbicidal ratio of 90% or more (almost completely withered)) | 1 (Herbicidal ratio of 5% or higher and lower than 20%) | 5 (Herbicidal ratio of 90% or more (almost completely withered)) | 5 (Herbicidal ratio of 90% or more (almost completely withered)) | 5 (Herbicidal ratio of 90% or more (almost completely withered)) | – | – | – | – | – | – | – | 3 (Herbicidal ratio of 40% or higher and lower than 70%) | 5 (Herbicidal ratio of 90% or more (almost completely withered)) | 5 (Herbicidal ratio of 90% or more (almost completely withered)) | Herbicidal effect grade, F: Digitaria ciliaris (Digitaria ciliaris): 5 (Herbicidal ratio of 90% or more (almost completely withered)); Herbicidal effect grade, G: Setaria viridis (Setaria viridis): 5 (Herbicidal ratio of 90% or more (almost completely withered)); Herbicidal effect grade, J: Alopecurus myosuroides (Alopecurus myosuroides): 5 (Herbicidal ratio of 90% or more (almost completely withered)); Herbicidal effect grade, M: Abutilon theophrasti (Abutilon theophrasti): 4 (Herbicidal ratio of 70% or higher and lower than 90%); Herbicidal effect grade, P: Stellaria media (Stellaria media [3]): 5 (Herbicidal ratio of 90% or more (almost completely withered)); Herbicidal effect grade, R: Veronica persica (Veronica persica): 4 (Herbicidal ratio of 70% or higher and lower than 90%); Effect on crop grade, c: corn (corn): 1 (Herbicidal ratio of 5% or higher and lower than 20%) |
